Results on 16 compounds are retold here after patent US5688774A (priority 1995, dated 1997).

Like-named read-outs stand apart in the source and are kept apart here.

The target of assay [1] is T1, A3 receptors (Rattus norvegicus, UniProt P28647).
T1 sequence (P28647 1-320): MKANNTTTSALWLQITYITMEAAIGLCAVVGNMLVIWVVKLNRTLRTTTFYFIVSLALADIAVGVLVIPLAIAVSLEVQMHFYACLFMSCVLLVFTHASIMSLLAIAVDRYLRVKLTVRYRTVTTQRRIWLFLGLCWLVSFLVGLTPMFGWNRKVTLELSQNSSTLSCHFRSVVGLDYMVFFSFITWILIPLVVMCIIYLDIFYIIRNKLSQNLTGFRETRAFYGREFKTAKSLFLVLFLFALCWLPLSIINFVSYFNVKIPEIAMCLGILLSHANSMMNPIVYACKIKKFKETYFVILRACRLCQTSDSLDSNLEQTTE
The experiment in a line: A3 receptor binding selectivity. To be noted: in words.

The next assay concerns the target T2, rat brain A1 receptor (Rattus norvegicus, UniProt P25099).
T2 construct: Rat cerebral cortical and striatal membranes were prepared; from tissue; host or cells: rat brain membranes (cerebral cortical)
T2 sequence (P25099 1-326): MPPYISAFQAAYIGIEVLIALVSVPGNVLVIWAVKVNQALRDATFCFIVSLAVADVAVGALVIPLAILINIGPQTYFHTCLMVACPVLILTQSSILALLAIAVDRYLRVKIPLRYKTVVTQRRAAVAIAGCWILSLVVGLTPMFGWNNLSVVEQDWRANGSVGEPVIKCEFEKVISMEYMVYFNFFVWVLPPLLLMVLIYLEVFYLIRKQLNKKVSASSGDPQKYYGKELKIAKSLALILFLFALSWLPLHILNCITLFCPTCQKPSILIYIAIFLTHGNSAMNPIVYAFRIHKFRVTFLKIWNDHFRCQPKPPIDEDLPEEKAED
As to the kind of experiment: Displacement of [^3 H]PIA binding at A1 receptors.

A further assay deals with T3, rat brain A2a receptor (Rattus norvegicus, UniProt P30543).
T3 construct: A2 receptors from rat striatal membranes; from tissue; host or cells: rat striatal membranes
The experiment in a line: Displacement of [^3 H]CGS 21680 binding at A2a receptors. As for the experimental part:
Rat cerebral cortical and striatal membranes were prepared (Jacobson et al., J. Med. Chem., 35, 4143-4149 (1992)) and treated with ADA for 30 min at 37° C. prior to storage at -70° C.
The stock solutions were diluted with DMSO to a concentration of ≤0.1 mM prior to addition to the aqueous medium. The final concentration of DMSO in the assay medium was generally 2%.
At least six different concentrations spanning three orders of magnitude, adjusted appropriately for the IC50 of each compound, were used. […]. Pharmacol., 22, 3099-3108 (1973)).

Assay [2] deals with T4, rat A3 adenosine receptors (Rattus norvegicus, UniProt P28647).
T4 construct: expressed in transfected cells; host or cells: CHO cells, stably transfected
T4 sequence (P28647 1-320): T1 sequence (P28647 1-320)
The experiment in a line: Inhibition of adenylate cyclase in CHO cells stably transfected with rat A3 adenosine receptors. The class given is cell-based. As to conditions: for Ratio Conc./Ki (A3): test concentration divided by Ki (A3); for agonist efficacy in inhibition of adenylate cyclase: via rat A3 receptors. Details: key to Effect on IB-MECA dose-resp. curve: no effect.

Assay [3] deals with T1, A3 receptors. As to conditions: in words; Zhou et al.; cited from earlier work.
The next assay deals with A3 receptor. To be noted: coadministered with a xanthine antagonist that does not act at A3 receptors; cited from earlier work.
Assay [4] relates to NMDA-induced seizures in mice. As to conditions: cited from earlier work.
Assay [5] deals with ischemic model in gerbils. As to conditions: cited from earlier work.
The mark [6] stands for this setting: [^3 H]PIA, rat brain membranes, Ki ± S.E.M., n = 3-6.
The mark [7] stands for this setting: [^3 H]CGS 21680, rat brain membranes, Ki ± S.E.M., n = 3-6.
Setting [8] is: CHO, 1 μM forskolin, average ± S.E.M. for 2-3 determinations or a single value, read-out: % Inhib. (adenylate cyclase).

In general, Ki refers to a dissociation constant, usually derived from enzyme kinetics or from competition with a known ligand.

T3 sequence (P30543 whole entry): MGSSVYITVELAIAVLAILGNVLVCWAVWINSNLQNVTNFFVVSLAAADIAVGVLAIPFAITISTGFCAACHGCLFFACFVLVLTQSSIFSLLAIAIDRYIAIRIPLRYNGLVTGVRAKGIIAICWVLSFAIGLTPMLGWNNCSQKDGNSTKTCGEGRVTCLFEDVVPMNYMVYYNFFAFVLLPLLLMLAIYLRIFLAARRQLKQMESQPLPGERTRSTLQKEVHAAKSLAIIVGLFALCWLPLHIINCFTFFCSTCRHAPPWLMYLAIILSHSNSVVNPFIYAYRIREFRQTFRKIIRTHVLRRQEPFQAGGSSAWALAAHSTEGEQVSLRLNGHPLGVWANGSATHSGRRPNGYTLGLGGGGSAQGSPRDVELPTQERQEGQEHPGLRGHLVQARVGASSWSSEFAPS

Take `CCNC(=O)[C@H]1O[C@@H](n2cnc3c(N)nc(NCCc4ccc(CCC(=O)NCCN)cc4)nc32)[C@H](O)[C@@H]1O` [APEC]: the “tolerance of 2-substitution at A3 receptors” value at A3 receptors [1] is on record as “well-tolerated”.

Turning to `CNC(=O)[C@@H]1CC[C@H](n2cnc3c(NCc4ccccc4)nc(Cl)nc32)O1` [Compound 40, 2-Chloro-9-(2,3-Dideoxy-β-D-5-Methyl-Ribofuronamido)-N^6 -Benzyladenine], the Ki on rat brain A1 receptor (setting [6]) turned out to be 11.5 ± 1.3 µM; at rat brain A2a receptor (setting [7]), 220 ± 65 µM. Further, in assay [2] (1 μM forskolin), the “Effect on IB-MECA dose-resp. curve” value is “c”. Further, in assay [2] (setting [8]), the inhibition at 40 µM was determined as 18.1 ± 8.7%. The “Ratio Conc./Ki (A3)” value in assay [2] amounted to 1.3.

As to `OC[C@H]1O[C@@H](n2cnc3c(NCc4cccc(I)c4)nc(Cl)nc32)[C@H](O)[C@@H]1O` [2-chloro-N^6-(3-iodobenzyl)-adenosine], the “tolerance of 2-substitution at A3 receptors” value on A3 receptors [1] is reported as “well-tolerated”.

As for `CNC(=O)[C@@H]1C[C@@H](O)[C@H](n2cnc3c(NCc4cccc(I)c4)nc(Cl)nc32)O1` [Compound 41b, 2-Chloro-9-(3-Deoxy-β-D-5-Methyl-Ribofuronamido)-N^6-(3-Iodobenzyl)adenine], the Ki on rat brain A1 receptor (setting [6]) stood at 1.03 ± 0.15 µM; on rat brain A2a receptor (setting [7]), 4.66 ± 0.74 µM. The inhibition at 100 µM in assay [2] (setting [8]) came to 49.2 ± 3.7%. In addition, the “Ratio Conc./Ki (A3)” value in assay [2] was found to be 3000.

Take `CCNC(=O)[C@H]1O[C@@H](n2cnc3c(NCc4ccccc4)ncnc32)[C@H](O)[C@@H]1O` [N^6-benzyladenosine-5'-N-ethyluronamide, reference compound]: at A3 receptors [1], the “selectivity for rat A3 receptors vs. either A1 or A2a receptors in binding assays” value was “only one order of magnitude selective”. For the same compound, the “agonist efficacy in inhibition of adenylate cyclase” value in assay [2] (in words) is “full agonists”.

For the compound `Nc1ccc(CCNc2ncnc3c2ncn3[C@@H]2O[C@H](CO)[C@@H](O)[C@H]2O)cc1` [APNEA, N^6-2-(4-aminophenyl)ethyladenosine], the “activity at the A3 receptor” value on A3 receptors [3] was “agonists for the A3 receptor”. Besides, the “cardioprotective potential of A3 receptor activation” value in the assay with A3 receptor is “has been demonstrated”.

As for `O[C@@H]1[C@H](O)CO[C@H]1n1cnc2c(NCc3cccc(I)c3)nc(Cl)nc21` [Compound 28, 2-Chloro-9-(b-D-erythrofuranoside)-N^6-(3-iodobenzyl)adenine], the Ki on rat brain A1 receptor amounted to 0.811 ± 0.123 µM; at rat brain A2a receptor it was 2.89 ± 1 µM. The inhibition at 100 µM in assay [2] (setting [8]) came to 42.2%. Besides, in assay [2], the “Ratio Conc./Ki (A3)” value is given as 360.

In the case of `CNC(=O)[C@H]1O[C@@H](n2cnc3c(NCc4cccc(I)c4)nc(Cl)nc32)[C@H](O)[C@@H]1O` [2-chloro-N^6-(3-iodobenzyl)-adenosine-5'-N-methyluronamide, reference compound], the “agonist efficacy in inhibition of adenylate cyclase” value in assay [2] (in words) is “full agonist”. The “agonist potency in inhibition of adenylate cyclase” value in assay [2] (in words, vs. other agonists) is on record as “greater than that of other agonists”.

At rat brain A1 receptor (setting [6]), `CC(C)[Si]1(C(C)C)OC[C@H]2O[C@@H](n3cnc4c(NCc5cccc(I)c5)nc(Cl)nc43)[C@H](O)[C@@H]2O[Si](C(C)C)(C(C)C)O1` [Compound 45, 2-Chloro-9-(3,5-1,1,3,3-Tetraisopropyldisiloxyl-β-D-5-Ribofuranosyl)-N^6-(3-Iodobenzyl)adenine] came in with a Ki of 66.3 ± 19.8 µM. Further, the “% Inhibition (A2a)” value on rat brain A2a receptor (at 10^-4, [^3 H]CGS 21680, rat brain) worked out at 18 ± 2%. Besides, the inhibition at 100 µM in assay [2] (setting [8]) came out at 8.7%. Moreover, the “Ratio Conc./Ki (A3)” value in assay [2] was determined as 7.6.

In the case of `CNC(=O)[C@H]1O[C@@H](n2cnc3c(NCc4cccc(I)c4)nc(Cl)nc32)[C@@H]2OC(=S)O[C@@H]21` [Compound 46, 2-Chloro-9-(2',3'-O-Thiocarbonyl-β-D-5-Methyl-Ribofuronamido)-N^6-(3-Iodobenzyl)adenine], the figures for the Ki on rat brain A1 receptor (setting [6]) and at rat brain A2a receptor (setting [7]) were 0.179 ± 0.024 µM and 0.871 ± 0.219 µM, respectively. Also, the inhibition at 100 µM in assay [2] (setting [8]) stood at 54.5 ± 8.1%. Moreover, in assay [2], the “Ratio Conc./Ki (A3)” value stood at 8200.

In the case of `CSc1nc(NCc2cccc(I)c2)c2ncn(C)c2n1` [Compound 16, N^6-(3-Iodobenzyl)-9-Methyl-2-Methylthioadenine], the figures for the Ki at rat brain A1 receptor (setting [6]) and on rat brain A2a receptor (setting [7]) were 1.89 ± 0.59 µM and 1.64 ± 0.39 µM, respectively. Further, in assay [2] (1 μM forskolin), the “Effect on IB-MECA dose-resp. curve” value is given as “c”. In addition, the inhibition at 100 µM in assay [2] (setting [8]) turned out to be 19.5%. For the same compound, the “Ratio Conc./Ki (A3)” value in assay [2] came out at 330.

`CNC(=O)[C@H]1O[C@@H](n2cnc3c(NCc4cccc(I)c4)ncnc32)[C@H](O)[C@@H]1O` [IB-MECA, N^6-(3-iodobenzyl)adenosine-5'-N-methyluronamide]: in assay [4], the “cerebroprotective effects, NMDA-induced seizures” value is “cerebroprotective effects”. The “cerebroprotective effects, ischemic model” value in assay [5] is given as “cerebroprotective effects”.

As for `CNC(=O)[C@@H]1C[C@H](N=[N+]=[N-])[C@H](n2cnc3c(NCc4cccc(I)c4)nc(Cl)nc32)O1` [Compound 42, 2-Chloro-9-(2'-Azido-2',3'-Dideoxy-β-D-5'-Methyl-Arabinofuronamido)-N^6 (3-Iodobenzyladenine)], the Ki at rat brain A1 receptor (setting [6]) was 0.401 ± 0.041 µM; at rat brain A2a receptor (setting [7]), 28.1 ± 3.2 µM. Besides, the inhibition at 100 µM in assay [2] (setting [8]) stood at 27.8%. The “Ratio Conc./Ki (A3)” value in assay [2] stood at 17.

Turning to `CNC(=O)[C@@H]1C[C@@H](OC(C)=O)[C@H](n2cnc3c(NCc4cccc(I)c4)nc(Cl)nc32)O1` [Compound 37, 9-(2-Acetyl-3-Deoxy-β-D-5-Methyl-Ribofuronamido)-2-Chloro -N^6-(3-Iodobenzyl)adenine], the Ki stood at 0.778 ± 0.044 µM at rat brain A1 receptor (setting [6]) and 15.9 ± 3.7 µM on rat brain A2a receptor (setting [7]). Also, the inhibition at 20 µM in assay [2] (CHO, 20 μM, 1 μM forskolin, average ± S.E.M. for 2-3 determinations or a single value, read-out: % Inhib. (adenylate cyclase)) was determined as 12.7 ± 1%. Also, the “Ratio Conc./Ki (A3)” value in assay [2] is reported as 320.

For the compound `CSc1nc(NCc2cccc(I)c2)c2ncn(C[C@@H](O)CO)c2n1` [Compound 19b, R-N^6-(3-Iodobenzyl)-9-(2,3-dihydroxypropyl)-2-methylthioadenine], in assay [2] (1 μM forskolin), the “Effect on IB-MECA dose-resp. curve” value is listed as “c”. Besides, the inhibition at 40 µM in assay [2] (setting [8]) came out at 7.4 ± 3.7%. Further, the “Ratio Conc./Ki (A3)” value in assay [2] is given as 4.6.

For the compound `CNC(=O)[C@@H]1C[C@H](F)[C@H](n2cnc3c(NCc4cccc(I)c4)nc(Cl)nc32)O1` [Compound 44, 2-Chloro-9-(2',3'-Dideoxy-2'-Fluoro-β-D-5'-Methyl-Arabinofuronamido)-N^6-(3-Iodobenzyl)adenine], the inhibition at 100 µM in assay [2] (setting [8]) is 11.2%. In assay [2], the “Ratio Conc./Ki (A3)” value amounted to 5.6.
